From ChEMBL document CHEMBL6092162, “Identification of novel and potent triazoles targeting CYP51 for antifungal: Design, synthesis, and biological study” (Eur J Med Chem, 2024)
In brackets after ≈: the same amount, converted by molar mass.

Key:
Assay type in all cases: functional
Pichia kudriavzevii = experiment: Antifungal activity against Candida krusei GIM 2.1 assessed as inhibition of fungal growth by CLSI M27-A3 guidelines based method
Candida tropicalis = experiment: Antifungal activity against Candida tropicalis GIM 2.183 assessed as inhibition of fungal growth by CLSI M27-A3 guidelines based method
Nakaseomyces glabratus = experiment: Antifungal activity against Candida glabrata assessed as inhibition of fungal growth by CLSI M27-A3 guidelines based method
Candida albicans [1] = experiment: Antifungal activity against Candida albicans SC5314 assessed as inhibition of fungal growth by CLSI M27-A3 guidelines based method
Candida albicans [2] = experiment: Antifungal activity against Candida albicans GIM 2.194 assessed as inhibition of fungal growth by CLSI M27-A3 guidelines based method
Candida parapsilosis = experiment: Antifungal activity against Candida parapsilosis GIM 2.190 assessed as inhibition of fungal growth by CLSI M27-A3 guidelines based method; settings: Lodderomyces parapsilosis
Cryptococcus neoformans = experiment: Antifungal activity against Cryptococcus neoformans CGMCC 2.3161 assessed as inhibition of fungal growth by CLSI M27-A3 guidelines based method

Structure (SMILES) | MIC80 (Pichia kudriavzevii) [µg/mL] | MIC80 (Candida tropicalis) [µg/mL] | MIC80 (Nakaseomyces glabratus) [µg/mL] | MIC80 (Candida albicans [1]) [µg/mL] | MIC80 (Candida albicans [2]) [µg/mL] | MIC80 (Candida parapsilosis) [µg/mL] | MIC80 (Cryptococcus neoformans) [µg/mL]
C#Cc1ccc(CN2CCN(c3ccc(CN(C)CC(O)(Cn4cncn4)c4ccc(F)cc4F)cc3)CC2)cc1 (stereo unspecified) | 3.2 (≈ 5.75 µM) | 0.1 (≈ 0.18 µM) | 3.2 (≈ 5.75 µM) | 0.1 (≈ 0.18 µM) | 0.2 (≈ 0.359 µM) | 0.4 (≈ 0.719 µM) | 3.2 (≈ 5.75 µM)
CN(Cc1ccc(N2CCN(Cc3ccc(C#N)cc3)CC2)cc1)CC(O)(Cn1cncn1)c1ccc(F)cc1F (stereo unspecified) | 1.6 (≈ 2.87 µM) | 0.05 (≈ 0.0897 µM) | 1.6 (≈ 2.87 µM) | 0.05 (≈ 0.0897 µM) | 0.05 (≈ 0.0897 µM) | 0.1 (≈ 0.179 µM) | 0.2 (≈ 0.359 µM)
CN(Cc1ccc(N2CCN(Cc3c(Br)cccc3Br)CC2)cc1)CC(O)(Cn1cncn1)c1ccc(F)cc1F (stereo unspecified) | 0.1 (≈ 0.145 µM) | 0.006 (≈ 0.00869 µM) | 0.1 (≈ 0.145 µM) | 0.013 (≈ 0.0188 µM) | 0.006 (≈ 0.00869 µM) | 0.006 (≈ 0.00869 µM) | 
CN(Cc1ccc(N2CCN(Cc3ccc(Br)cc3Br)CC2)cc1)CC(O)(Cn1cncn1)c1ccc(F)cc1F (stereo unspecified) | 0.1 (≈ 0.145 µM) | 0.006 (≈ 0.00869 µM) | 0.1 (≈ 0.145 µM) | 0.013 (≈ 0.0188 µM) | 0.013 (≈ 0.0188 µM) | 0.006 (≈ 0.00869 µM) | 
CC(C)c1ccc(CN2CCN(c3ccc(CN(C)CC(O)(Cn4cncn4)c4ccc(F)cc4F)cc3)CC2)cc1 (stereo unspecified) |  | 0.25 (≈ 0.435 µM) | 0.4 (≈ 0.696 µM) | 0.013 (≈ 0.0226 µM) | 0.013 (≈ 0.0226 µM) | 0.013 (≈ 0.0226 µM) | 0.1 (≈ 0.174 µM)
CN(Cc1ccc(N2CCN(C(=O)c3ccccc3)CC2)cc1)CC(O)(Cn1cncn1)c1ccc(F)cc1F (stereo unspecified) | 1.6 (≈ 2.93 µM) | 0.013 (≈ 0.0238 µM) | 1.6 (≈ 2.93 µM) | 0.025 (≈ 0.0457 µM) | 0.013 (≈ 0.0238 µM) | 0.025 (≈ 0.0457 µM) | 0.4 (≈ 0.732 µM)
CCC(=O)N1CCN(c2ccc(CN(C)CC(O)(Cn3cncn3)c3ccc(F)cc3F)cc2)CC1 (stereo unspecified) | 16 (≈ 32.1 µM) | 0.5 (≈ 1 µM) | 16 (≈ 32.1 µM) | 0.25 (≈ 0.501 µM) | 0.5 (≈ 1 µM) | 0.1 (≈ 0.201 µM) | 8 (≈ 16 µM)
CC(C)C(=O)N1CCN(c2ccc(CN(C)CC(O)(Cn3cncn3)c3ccc(F)cc3F)cc2)CC1 (stereo unspecified) | 16 (≈ 31.2 µM) | 0.5 (≈ 0.975 µM) | 16 (≈ 31.2 µM) | 0.25 (≈ 0.488 µM) | 1 (≈ 1.95 µM) | 0.25 (≈ 0.488 µM) | 16 (≈ 31.2 µM)
CN(Cc1ccc(N2CCN(C(=O)C3CC3)CC2)cc1)CC(O)(Cn1cncn1)c1ccc(F)cc1F (stereo unspecified) | 32 (≈ 62.7 µM) | 1 (≈ 1.96 µM) | 32 (≈ 62.7 µM) | 0.25 (≈ 0.49 µM) | 1 (≈ 1.96 µM) | 0.5 (≈ 0.979 µM) | 16 (≈ 31.3 µM)

Further lines, results first:

MIC80 (Pichia kudriavzevii) [µg/mL] | MIC80 (Candida tropicalis) [µg/mL] | MIC80 (Nakaseomyces glabratus) [µg/mL] | MIC80 (Candida albicans [1]) [µg/mL] | MIC80 (Candida albicans [2]) [µg/mL] | MIC80 (Candida parapsilosis) [µg/mL] | MIC80 (Cryptococcus neoformans) [µg/mL] | Structure (SMILES)
0.1 (≈ 0.164 µM) | 0.025 (≈ 0.0409 µM) | 0.4 (≈ 0.654 µM) | 0.025 (≈ 0.0409 µM) | 0.025 (≈ 0.0409 µM) | 0.05 (≈ 0.0818 µM) | 0.2 (≈ 0.327 µM) | CN(Cc1ccc(N2CCN(Cc3ccc(Br)cc3)CC2)cc1)CC(O)(Cn1cncn1)c1ccc(F)cc1F (stereo unspecified)
0.8 (≈ 1.46 µM) | 0.2 (≈ 0.366 µM) | 1.6 (≈ 2.93 µM) | 0.2 (≈ 0.366 µM) | 0.2 (≈ 0.366 µM) | 0.4 (≈ 0.732 µM) | 3.2 (≈ 5.85 µM) | Cc1ccc(CN2CCN(c3ccc(CN(C)CC(O)(Cn4cncn4)c4ccc(F)cc4F)cc3)CC2)cc1 (stereo unspecified)
0.4 (≈ 0.751 µM) | 0.013 (≈ 0.0244 µM) | 0.4 (≈ 0.751 µM) | 0.013 (≈ 0.0244 µM) | 0.013 (≈ 0.0244 µM) | 0.025 (≈ 0.0469 µM) | 0.2 (≈ 0.375 µM) | CN(Cc1ccc(N2CCN(Cc3ccccc3)CC2)cc1)CC(O)(Cn1cncn1)c1ccc(F)cc1F (stereo unspecified)
0.1 (≈ 0.152 µM) | 0.05 (≈ 0.0759 µM) | 0.2 (≈ 0.304 µM) | 0.025 (≈ 0.038 µM) | 0.013 (≈ 0.0197 µM) | 0.1 (≈ 0.152 µM) | 0.1 (≈ 0.152 µM) | CN(Cc1ccc(N2CCN(Cc3ccc(I)cc3)CC2)cc1)CC(O)(Cn1cncn1)c1ccc(F)cc1F (stereo unspecified)
0.4 (≈ 0.726 µM) | 0.025 (≈ 0.0454 µM) | 1.6 (≈ 2.91 µM) | 0.05 (≈ 0.0908 µM) | 0.025 (≈ 0.0454 µM) | 0.025 (≈ 0.0454 µM) | 0.4 (≈ 0.726 µM) | CN(Cc1ccc(N2CCN(Cc3cccc(F)c3)CC2)cc1)CC(O)(Cn1cncn1)c1ccc(F)cc1F (stereo unspecified)
0.1 (≈ 0.176 µM) | 0.05 (≈ 0.0882 µM) | 0.8 (≈ 1.41 µM) | 0.05 (≈ 0.0882 µM) | 0.05 (≈ 0.0882 µM) | 0.1 (≈ 0.176 µM) | 0.8 (≈ 1.41 µM) | CN(Cc1ccc(N2CCN(Cc3ccc(Cl)cc3)CC2)cc1)CC(O)(Cn1cncn1)c1ccc(F)cc1F (stereo unspecified)
0.1 (≈ 0.182 µM) | 0.05 (≈ 0.0908 µM) | 0.4 (≈ 0.726 µM) | 0.05 (≈ 0.0908 µM) | 0.006 (≈ 0.0109 µM) | 0.025 (≈ 0.0454 µM) | 0.2 (≈ 0.363 µM) | CN(Cc1ccc(N2CCN(Cc3ccccc3F)CC2)cc1)CC(O)(Cn1cncn1)c1ccc(F)cc1F (stereo unspecified)
0.2 (≈ 0.329 µM) | 0.013 (≈ 0.0214 µM) | 0.4 (≈ 0.657 µM) | 0.025 (≈ 0.0411 µM) | 0.025 (≈ 0.0411 µM) | 0.025 (≈ 0.0411 µM) | 0.3 (≈ 0.493 µM) | CN(Cc1ccc(N2CCN(Cc3ccc(-c4ccccc4)cc3)CC2)cc1)CC(O)(Cn1cncn1)c1ccc(F)cc1F (stereo unspecified)
